US20250127716A1, “INHALED IMATINIB FOR TREATMENT OF PULMONARY HYPERTENSION” (JUSTUS-LIEBIG-UNIVERSITAET GIESSEN, priority 2022, published 2025)
Entries after “also recorded” stand apart in the source; their conditions may differ. Counter-ions that a name gives are not always drawn. Values belong to the molecule of their own block, whether it stands above or below them.

How the values were obtained:
PAH-patients = settings: oral, cited from earlier work
[1] = Formulation of stable concentrated imatinib solutions in different solvents (Examples 1-4); settings: room temperature, one hour
[2] = In vitro nebulization feasibility, Medspray wet aerosol inhaler single nozzle unit (Example 5); assay type: physicochemical; settings: Medspray nozzle pore size 1.9 μm
Experimental: In an in vitro nebulization study, the feasibility to nebulize different imatinib mesylate solutions by the Medspray™ wet aerosol inhaler was evaluated. A 1 ml syringe was filled with the formulation to be tested, a single nozzle unit of Medspray™ wet aerosol inhaler was then fixed on the syringe by a luer adapter. The nozzle pore size was 1.9 μm. The aerosol was produced by pressing the piston of the syringe manually, thereby forcing the solution through the nozzle pores. […] When using ethanol 10% (v/v) or glycerol 1% (v/v), solutions with a concentration of 240 mg/ml were nebulizable; a mixture of ethanol 10% (v/v) and glycerol 1% (v/v) further increased the maximum imatinib concentration of the solution to 250 mg/ml capable of being nebulized.

[3] = cited from earlier work
PAH patients = settings: oral; phase II, 59 patients; cited from earlier work
[4] = 24-week trial, 202 PAH-patients

SMILES: Cc1ccc(NC(=O)c2ccc(CN3CCN(C)CC3)cc2)cc1Nc1nccc(-c2cccnc2)n1 [imatinib, 4-[(4-methylpiperazin-1-yl)methyl]-N-(4-methyl-3-{[4-(pyridin-3-yl)pyrimidin-2-yl]amino}phenyl)benzamide]
- adverse events, side effects and discontinuation (PAH-patients; study and open-label extension phase): severe adverse events, significant side effects, and a high discontinuation rate

- stability of resulting solutions ([1]; higher ionic strength solvents of Example 3): not stable
- concentration of stable imatinib mesylate solution that could be formulated ([1]; higher ionic strength solvents: NaCl 0.9%, HCl/NaOH, citrate, HEPES, trometamol, PBS buffer): < 50000 µg/mL
- concentration of stable imatinib mesylate solution that could be formulated ([1]; low ionic strength solvents of Example 4 (a. dest, ethanol, urea, glycerol, mannitol, glycols, ectoin)): up to 500 mg/ml
- maximum concentration capable of being nebulized ([2]; solvent a. dest): 210 mg/mL
- maximum imatinib concentration capable of being nebulized ([2]; solvent ethanol 10% (v/v) and glycerol 1% (v/v)): 250 mg/mL
- concentration nebulizable ([2]; solvent ethanol 10% (v/v)): 240000 µg/mL
- concentration nebulizable ([2]; solvent glycerol 1% (v/v)): 240000 µg/mL
SMILES: Cc1ccc(NC(=O)c2ccc(CN3CCN(C)CC3)cc2)cc1Nc1nccc(-c2cccnc2)n1 [Imatinib mesylate]
- 6-minute walk distance (primary outcome) (PAH-patients; [4]): significantly improving; also recorded: significantly improved
- pulmonary vascular resistance (PAH-patients; [4]): significantly improved
- inter-subject variation in pharmacokinetics ([3]; in vivo): high
- bioavailability ([3]; oral): almost complete
- change from baseline in the 6-minute-walk distance (primary endpoint) (PAH patients): not meeting the primary endpoint
- pulmonary hemodynamics (secondary endpoint) (PAH patients): significantly improved

- imatinib concentration of stable solution that could be formulated ([1]; a. dest, NaCl 0.9%, citrate buffer 5%, urea 5%, ethanol 10%, glycerol 1%): ≤ 5 mg/mL
SMILES: Cc1ccc(NC(=O)c2ccc(CN3CCN(C)CC3)cc2)cc1Nc1nccc(-c2cccnc2)n1 [Imatinib free base, 4-[(4-methylpiperazin-1-yl)methyl]-N-(4-methyl-3-{[4-(pyridin-3-yl)pyrimidin-2-yl]amino}phenyl)benzamide]
